Results reported in patent US10894787B2, “Modulators of the GPR119 receptor and the treatment of disorders related thereto” (Arena Pharmaceuticals, Inc., priority 2010, dated 2021).

Legend:
[1] = test system: male diabetic ZDF rats; experiment: Oral glucose tolerance test (oGTT) in male diabetic ZDF rats; assay type: in vivo, rat; conditions: for Plasma Glucose Mean: N = 6; for % Inhibition of Glucose Excursion: AUC reduction relative to vehicle control, ZDF rats
Method: Male ZDF rats were fasted for 18 h and randomly grouped (n=6) to receive a GPR119 agonist, (Compound 1), at 0.3, 3, 10, or 30 mg/kg (mg compound per kg body weight). The compound was delivered orally via a gavage needle (p.o., volume 4 mL/kg) 60 min prior to glucose bolus (3 g/kg) (time=−60 min in FIG. 1), with a separate group receiving vehicle (20% hydroxypropyl-beta-cyclodextrin) as control. At time 0 min the glucose bolus was administered. Levels of blood glucose were assessed using a glucometer (One-Touch Ultra™ LifeScan) at time −60 minute (prior to compound administration), at 0 min (at time when glucose bolus was given), and at 30, 60, 90, and 120 min post glucose bolus. Glucose excursion (AUC (area under the curve) reduction) in compound treated animals relative to vehicle control is shown in FIG. 2 and Table 2.

[2] = test system: male 129SVE mice; experiment: Oral glucose tolerance test (oGTT) in male 129SVE mice; assay type: in vivo, mouse; conditions: for Plasma Glucose Mean: N = 6; for % Inhibition of Glucose Excursion: AUC reduction relative to vehicle control
Method: Male 129SVE mice (approximately 8-week old) were fasted for 18 h and randomly grouped (n=6) to receive a GPR119 agonist, (Compound 1), at 0.3, 3, or 30 mg/kg (mg/kg body weight). The compound was delivered orally via a gavage needle (p.o., volume 4 mL/kg) 30 min prior to glucose bolus (3 g/kg) (time=−30 min in FIG. 3), with a separate group receiving vehicle (20% hydroxypropyl-beta-cyclodextrin) as control. At time 0 min. the glucose bolus was administered. Levels of blood glucose were assessed using a glucometer (One-Touch Ultra™, LifeScan) at time −30 minute (prior to compound administration), at 0 min (at time when glucose bolus was given), and at 20, 40, 60, 120 min post glucose bolus. Glucose excursion (AUC (area under the curve) reduction) in compound treated animals relative to vehicle control is given in FIG. 4, and in Table 4.

[3] = target: T1, GPR119 receptor (Homo sapiens, UniProt Q8TDV5); experiment: HTRF assay for direct cAMP measurement in CHO-K1 cells stably expressing the GPR119 receptor; assay type: cell-based; conditions: CHO-K1 cells stably expressing GPR119; 1 h incubation at room temperature; read-out: EC50, HTRF cAMP assay
T1 construct: expressed in transfected cells
T1 sequence (Q8TDV5 2-335 limits assumed): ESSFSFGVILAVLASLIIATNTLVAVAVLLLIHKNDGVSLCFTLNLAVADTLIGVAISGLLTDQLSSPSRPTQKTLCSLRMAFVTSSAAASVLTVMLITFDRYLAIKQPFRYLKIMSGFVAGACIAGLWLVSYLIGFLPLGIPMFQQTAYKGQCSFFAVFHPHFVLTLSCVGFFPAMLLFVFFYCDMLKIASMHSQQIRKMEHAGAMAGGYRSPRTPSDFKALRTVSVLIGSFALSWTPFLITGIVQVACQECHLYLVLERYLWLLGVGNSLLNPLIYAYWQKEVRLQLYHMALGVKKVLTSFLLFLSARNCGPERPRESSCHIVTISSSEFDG
Method: The GPR119 agonist, Compound 1, was evaluated in an HTRF® cAMP detection assay according to the manufacturer's instructions (Cisbio, cAMP Dynamic 2 Assay Kit; #62AM4PEJ) using CHO-K1 cells stably expressing the GPR119 receptor. Briefly, CHO-K1 cells were transduced with a lentiviral vector encoding the nucleotide sequence of GPR119 (NCBI mRNA and protein reference sequences: NM_178471.2 & NP_848566, (GPR119 has also been referred to as Glucose-Dependent Insulinotropic Receptor (GDIR)). The N-terminus of the GPR119 nucleotide sequence was modified to replace the first, methionine-coding codon with a nucleotide sequence coding for a standard, nine amino acid, hemagglutinin tag. Following transduction, cells expressing the GPR119 receptor were isolated and a single clone was isolated following standard dilution-cloning procedures. On the day of the assay, cultured CHO-GPR119 cells were harvested, suspended in assay buffer and plated into 384-well assay plates (PerkinElmer Proxiplate #6008280) at a density of 2,000 cells per well. A cAMP standard curve was included on each plate. Test compounds were solubilized in DMSO, serially diluted in DMSO and then diluted in assay buffer before adding to the cells. Test compounds were evaluated in triplicate, using 10-point, 5-fold serial dilutions starting at 10 μM. The final DMSO concentration in the assay was 0.5%. Compounds and cells were incubated for 1 h at room temperature and then detection reagents were added to each well (cAMP-D2 in cell lysis buffer, followed by europium cryptate-labeled anti-cAMP antibody). Plates were then incubated at room temperature for 1 h prior to reading. Time-resolved fluorescence measurements were collected on PerkinElmer Envision™ or BMG Pherastar™ microplate readers. The compound N-(2-fluoro-4-(methylsulfonyl)phenyl)-6-(4-(3-isopropyl-1,2,4-oxadiazol-5-yl)piperidin-1-yl)-5-nitropyrimidin-4-amine was used as a positive control in each runset while assay buffer containing 0.5% DMSO was used as the negative control.

[4] = 0.3 mg/kg p.o., 60 min post glucose bolus
[5] = 0.3 mg/kg p.o., 120 min post glucose bolus
[6] = 3.0 mg/kg p.o., 60 min post glucose bolus
[7] = 3.0 mg/kg p.o., 120 min post glucose bolus
[8] = 30.0 mg/kg p.o., 60 min post glucose bolus
[9] = 30.0 mg/kg p.o., 120 min post glucose bolus

SMILES: CN(C)C(=O)c1ccc(Nc2ncnc(N3CCC(c4nc(C(C)(C)F)no4)CC3)c2F)c(F)c1 [Compound 1, 3-fluoro-4-(5-fluoro-6-(4-(3-(2-fluoropropan-2-yl)-1,2,4-oxadiazol-5-yl)piperidin-1-yl)pyrimidin-4-ylamino)-N,N-dimethylbenzamide]
- Plasma Glucose Mean ([1]; 0.3 mg/kg p.o. 60 min prior to glucose bolus, time 0 min): 89.7 mg/dL
- Plasma Glucose Mean ([1]; 0.3 mg/kg p.o., 30 min post glucose bolus): 201.7 mg/dL
- Plasma Glucose Mean [1, 4]: 192.2 mg/dL
- Plasma Glucose Mean ([1]; 0.3 mg/kg p.o., 90 min post glucose bolus): 185.3 mg/dL
- Plasma Glucose Mean [1, 5]: 154.8 mg/dL
- % Inhibition of Glucose Excursion ([1]; 0.3 mg/kg p.o.): 6.5%
- Plasma Glucose Mean ([1]; 0.3 mg/kg p.o., time -60 min (prior to compound administration)): 106.3 mg/dL
- Plasma Glucose Mean ([1]; 3.0 mg/kg p.o. 60 min prior to glucose bolus, time 0 min): 82.7 mg/dL
- Plasma Glucose Mean ([1]; 3.0 mg/kg p.o., 30 min post glucose bolus): 184.5 mg/dL
- Plasma Glucose Mean [1, 6]: 144.2 mg/dL
- Plasma Glucose Mean ([1]; 3.0 mg/kg p.o., 90 min post glucose bolus): 151.2 mg/dL
- Plasma Glucose Mean [1, 7]: 146.2 mg/dL
- % Inhibition of Glucose Excursion ([1]; 3 mg/kg p.o.): 47.0%
- Plasma Glucose Mean ([1]; 3.0 mg/kg p.o., time -60 min (prior to compound administration)): 110.0 mg/dL
- Plasma Glucose Mean ([1]; 10.0 mg/kg p.o. 60 min prior to glucose bolus, time 0 min): 76.0 mg/dL
- Plasma Glucose Mean ([1]; 10.0 mg/kg p.o., 30 min post glucose bolus): 174.0 mg/dL
- Plasma Glucose Mean ([1]; 10.0 mg/kg p.o., 60 min post glucose bolus): 135.8 mg/dL
- Plasma Glucose Mean ([1]; 10.0 mg/kg p.o., 90 min post glucose bolus): 141.3 mg/dL
- Plasma Glucose Mean ([1]; 10.0 mg/kg p.o., 120 min post glucose bolus): 132.5 mg/dL
- % Inhibition of Glucose Excursion ([1]; 10 mg/kg p.o.): 60.1%
- Plasma Glucose Mean ([1]; 10.0 mg/kg p.o., time -60 min (prior to compound administration)): 108.7 mg/dL
- Plasma Glucose Mean ([1]; 30.0 mg/kg p.o. 60 min prior to glucose bolus, time 0 min): 93.0 mg/dL
- Plasma Glucose Mean ([1]; 30.0 mg/kg p.o., 30 min post glucose bolus): 197.0 mg/dL
- Plasma Glucose Mean [1, 8]: 124.8 mg/dL
- Plasma Glucose Mean ([1]; 30.0 mg/kg p.o., 90 min post glucose bolus): 135.8 mg/dL
- Plasma Glucose Mean [1, 9]: 130.2 mg/dL
- % Inhibition of Glucose Excursion ([1]; 30 mg/kg p.o.): 52.1%
- Plasma Glucose Mean ([1]; 30.0 mg/kg p.o., time -60 min (prior to compound administration)): 104.8 mg/dL
- Effect on blood glucose after a challenge with glucose ([1]; diabetic ZDF rats, 0.3-30 mg/kg p.o.): lowered blood glucose
- Plasma Glucose Mean ([2]; 0.3 mg/kg p.o. 30 min prior to glucose bolus, time 0 min): 74.2 mg/dL
- Plasma Glucose Mean ([2]; 0.3 mg/kg p.o., 20 min post glucose bolus): 221.3 mg/dL
- Plasma Glucose Mean ([2]; 0.3 mg/kg p.o., 40 min post glucose bolus): 274.8 mg/dL
- Plasma Glucose Mean [2, 4]: 258.2 mg/dL
- Plasma Glucose Mean [2, 5]: 154.5 mg/dL
- % Inhibition of Glucose Excursion ([2]; 0.3 mg/kg p.o., 129SVE mice): 16.9%
- Plasma Glucose Mean ([2]; 0.3 mg/kg p.o., time -30 min (prior to compound administration)): 58.5 mg/dL
- Plasma Glucose Mean ([2]; 3.0 mg/kg p.o. 30 min prior to glucose bolus, time 0 min): 75.2 mg/dL
- Plasma Glucose Mean ([2]; 3.0 mg/kg p.o., 20 min post glucose bolus): 206.7 mg/dL
- Plasma Glucose Mean ([2]; 3.0 mg/kg p.o., 40 min post glucose bolus): 233.0 mg/dL
- Plasma Glucose Mean [2, 6]: 213.5 mg/dL
- Plasma Glucose Mean [2, 7]: 138.2 mg/dL
- % Inhibition of Glucose Excursion ([2]; 3 mg/kg p.o., 129SVE mice): 34.8%
- Plasma Glucose Mean ([2]; 3.0 mg/kg p.o., time -30 min (prior to compound administration)): 63.5 mg/dL
- Plasma Glucose Mean ([2]; 30.0 mg/kg p.o. 30 min prior to glucose bolus, time 0 min): 78.7 mg/dL
- Plasma Glucose Mean ([2]; 30.0 mg/kg p.o., 20 min post glucose bolus): 185.8 mg/dL
- Plasma Glucose Mean ([2]; 30.0 mg/kg p.o., 40 min post glucose bolus): 216.0 mg/dL
- Plasma Glucose Mean [2, 8]: 191.7 mg/dL
- Plasma Glucose Mean [2, 9]: 138.7 mg/dL
- % Inhibition of Glucose Excursion ([2]; 30 mg/kg p.o., 129SVE mice): 42.1%
- Plasma Glucose Mean ([2]; 30.0 mg/kg p.o., time -30 min (prior to compound administration)): 64.5 mg/dL
- Effect on blood glucose after a challenge with glucose ([2]; 129SVE mice, 0.3-30 mg/kg p.o.): lowered blood glucose
- EC50 [3]: 0.0234 µM
